Experimental data from PubChem BioAssay AID248 (DTP/NCI, 2004).
Values joined by “and” are separate entries in the source; they are usually repeats but may differ in a detail not shown here. Equal entries are not always repeated. Toxic doses and inconclusive results are not listed. Rule as the data show it: active = T/C of 150% or more; inactive = T/C below 125%.

Tested on: L1210 leukemia ip in BDF1 mice, survival T/C
Experiment: NCI In Vivo Anticancer Drug Screen. Data for tumor model L1210 Leukemia (intraperitoneal) in B6D2F1 (BDF1) mice
Details: endpoint: mean survival time, higher = longer survival
Method in brief: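 Transplanted-tumor mice were given test agent; controls received vehicle only. Survival readings from the two groups were divided (treated over control).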

[1] = dose: 25.0 mg/kg/injection, schedule: Q01DX009 (ip), vehicle: saline
[2] = dose: 50.0 mg/kg/injection, schedule: Q04DX003 (ip), vehicle: saline
[3] = dose: 100.0 mg/kg/injection, schedule: Q01DX009 (ip), vehicle: saline
[4] = dose: 100.0 mg/kg/injection, schedule: Q04DX003 (ip), vehicle: saline
[5] = dose: 200.0 mg/kg/injection, schedule: Q01DX009 (ip), vehicle: saline
[6] = dose: 400.0 mg/kg/injection, schedule: Q01DX009 (ip), vehicle: saline
[7] = dose: 100.0 mg/kg/injection, schedule: Q01DX001 (ip), vehicle: saline
[8] = dose: 200.0 mg/kg/injection, schedule: Q01DX001 (ip), vehicle: saline
[9] = dose: 400.0 mg/kg/injection, schedule: Q01DX001 (ip), vehicle: saline
[10] = dose: 200.0 mg/kg/injection, schedule: Q04DX003 (ip), vehicle: saline
[11] = dose: 400.0 mg/kg/injection, schedule: Q04DX003 (ip), vehicle: saline
[12] = dose: 100.0 mg/kg/injection, schedule: Q01DX009 (ip), vehicle: Klucel (hydroxypropylcellulose) (HPC)
[13] = dose: 200.0 mg/kg/injection, schedule: Q01DX009 (ip), vehicle: Klucel (hydroxypropylcellulose) (HPC)
[14] = dose: 400.0 mg/kg/injection, schedule: Q01DX009 (ip), vehicle: Klucel (hydroxypropylcellulose) (HPC)

Measured: T/C

CC1CCCCN1CCCO (stereo unspecified)
inactive: [1] 87 % of control | dose: 25.0 mg/kg/injection, schedule: Q04DX003 (ip), vehicle: saline 103 % of control | dose: 50.0 mg/kg/injection, schedule: Q01DX009 (ip), vehicle: saline 91 % of control | [2] 112 % of control | [3] 89 % of control | [4] 92 % of control and 95 % of control

COc1ccc(/C=C2/COC/C(=C\c3ccc(OC)cc3)C2=O)cc1
inactive: [3] 91 % of control | [5] 91 % of control | [6] 91 % of control

CC(SS(=O)(=O)O)C(N)=NCc1ccccc1 (stereo unspecified)
inactive: dose: 25.0 mg/kg/injection, schedule: Q04DX002 (ip), vehicle: Klucel (hydroxypropylcellulose) (HPC) 94 % of control | dose: 50.0 mg/kg/injection, schedule: Q04DX002 (ip), vehicle: Klucel (hydroxypropylcellulose) (HPC) 108 % of control | dose: 100.0 mg/kg/injection, schedule: Q04DX002 (ip), vehicle: Klucel (hydroxypropylcellulose) (HPC) 98 % of control

Cn1c(=O)c2[nH]c(-c3ccc4c(c3)OCO4)nc2n(C)c1=O
inactive: dose: 50.0 mg/kg/injection, schedule: Q01DX001 (ip), vehicle: other 95 % of control | dose: 100.0 mg/kg/injection, schedule: Q01DX001 (ip), vehicle: other 97 % of control | dose: 200.0 mg/kg/injection, schedule: Q01DX001 (ip), vehicle: other 95 % of control | dose: 400.0 mg/kg/injection, schedule: Q01DX001 (ip), vehicle: other 86 % of control

CC(=O)N(C)c1cc(N)ccc1OCc1ccccc1
inactive: dose: 12.5 mg/kg/injection, schedule: Q04DX003 (ip), vehicle: saline with Tween-80 91 % of control | dose: 25.0 mg/kg/injection, schedule: Q01DX009 (ip), vehicle: saline with Tween-80 100 % of control | dose: 25.0 mg/kg/injection, schedule: Q04DX003 (ip), vehicle: saline with Tween-80 98 % of control and 101 % of control | dose: 50.0 mg/kg/injection, schedule: Q01DX009 (ip), vehicle: saline with Tween-80 96 % of control | dose: 50.0 mg/kg/injection, schedule: Q04DX003 (ip), vehicle: saline with Tween-80 95 % of control and 102 % of control | dose: 100.0 mg/kg/injection, schedule: Q01DX009 (ip), vehicle: saline with Tween-80 102 % of control | dose: 100.0 mg/kg/injection, schedule: Q04DX003 (ip), vehicle: saline with Tween-80 95 % of control and 113 % of control | dose: 200.0 mg/kg/injection, schedule: Q04DX003 (ip), vehicle: saline with Tween-80 97 % of control

Cc1nc(SC(=N)N)nc2c1CCO2
inactive: [7] 96 % of control | [8] 97 % of control | [9] 88 % of control

CCOC(OCC)n1ncnc1NC(=S)NCc1ccccc1
inactive: [2] 100 % of control | [4] 100 % of control | [10] 97 % of control

CCOC(=O)C(O)(CC)CC
inactive: [3] 96 % of control | [4] 93 % of control | [5] 101 % of control | [10] 93 % of control | [6] 102 % of control | [11] 95 % of control

C#CCCCc1ccccc1
inactive: dose: 50.0 mg/kg/injection, schedule: Q01DX001 (ip), vehicle: carboxymethylcellulose (CMC) 102 % of control | dose: 100.0 mg/kg/injection, schedule: Q01DX001 (ip), vehicle: carboxymethylcellulose (CMC) 98 % of control | dose: 200.0 mg/kg/injection, schedule: Q01DX001 (ip), vehicle: carboxymethylcellulose (CMC) 96 % of control | dose: 400.0 mg/kg/injection, schedule: Q01DX001 (ip), vehicle: carboxymethylcellulose (CMC) 96 % of control

CN(N=O)C(=O)NC1CC2CCC1C2 (stereo unspecified)
inactive: dose: 4.0 mg/kg/injection, schedule: Q01DX001 (ip), vehicle: other 104 % of control | dose: 8.0 mg/kg/injection, schedule: Q01DX001 (ip), vehicle: other 104 % of control | dose: 16.0 mg/kg/injection, schedule: Q01DX001 (ip), vehicle: other 108 % of control | dose: 31.0 mg/kg/injection, schedule: Q01DX001 (ip), vehicle: other 104 % of control | dose: 62.0 mg/kg/injection, schedule: Q01DX001 (ip), vehicle: other 100 % of control | dose: 125.0 mg/kg/injection, schedule: Q01DX001 (ip), vehicle: other 104 % of control | dose: 250.0 mg/kg/injection, schedule: Q01DX001 (ip), vehicle: other 112 % of control | dose: 375.0 mg/kg/injection, schedule: Q01DX001 (ip), vehicle: other 112 % of control | dose: 500.0 mg/kg/injection, schedule: Q01DX001 (ip), vehicle: other 118 % of control

Nc1nc2c(c(=O)[nH]1)N=C(CCNc1ccc(C(=O)O)cc1)CN2
inactive: [7] 105 % of control | [8] 109 % of control | [9] 109 % of control

CCOC(=O)c1ccc(NC(=O)OC2CCCC2)cc1
inactive: [12] 100 % of control | [13] 101 % of control | [14] 92 % of control

COC(=O)CC1(O)C=CC(=O)C=C1
inactive: dose: 6.25 mg/kg/injection, schedule: Q01DX009 (ip), vehicle: Klucel (hydroxypropylcellulose) (HPC) 95 % of control | dose: 12.5 mg/kg/injection, schedule: Q01DX009 (ip), vehicle: Klucel (hydroxypropylcellulose) (HPC) 92 % of control | dose: 25.0 mg/kg/injection, schedule: Q01DX009 (ip), vehicle: Klucel (hydroxypropylcellulose) (HPC) 108 % of control | [1] 100 % of control

CC1CN=C(c2ccc(NC(=O)Nc3ccc(C(=O)Nc4ccc(C5=NCC(C)N5)cc4)cc3)cc2)N1 (stereo unspecified)
active: dose: 7.5 mg/kg/injection, schedule: Q01DX Z (ip), vehicle: saline 150 % of control | dose: 15.0 mg/kg/injection, schedule: Q01DX Z (ip), vehicle: other 204 % of control | dose: 15.0 mg/kg/injection, schedule: Q01DX Z (ip), vehicle: saline 277 % of control
inactive: dose: 0.23 mg/kg/injection, schedule: Q01DX009 (ip), vehicle: saline 96 % of control | dose: 0.94 mg/kg/injection, schedule: Q01DX009 (ip), vehicle: saline 96 % of control | dose: 15.0 mg/kg/injection, schedule: Q01DX Z (oral), vehicle: saline 103 % of control | dose: 30.0 mg/kg/injection, schedule: Q01DX Z (ip), vehicle: other 115 % of control | dose: 30.0 mg/kg/injection, schedule: Q01DX Z (oral), vehicle: saline 103 % of control | dose: 60.0 mg/kg/injection, schedule: Q01DX Z (oral), vehicle: saline 103 % of control | dose: 120.0 mg/kg/injection, schedule: Q01DX Z (oral), vehicle: saline 102 % of control

O=C(Nc1ccc(Cl)cc1)Oc1ccc2ccccc2c1
inactive: [4] 103 % of control | [10] 92 % of control | [11] 97 % of control

COC(=O)c1ccccc1NC(=O)Nc1ccc(SC)cc1
inactive: [12] 89 % of control | [13] 92 % of control | [14] 95 % of control

C/C(=N\Nc1ccc([N+](=O)[O-])cc1[N+](=O)[O-])C(F)(F)F
inactive: dose: 100.0 mg/kg/injection, schedule: Q01DX009 (ip), vehicle: saline sonified 95 % of control | dose: 100.0 mg/kg/injection, schedule: Q04DX003 (ip), vehicle: Klucel (hydroxypropylcellulose) (HPC) 94 % of control | dose: 200.0 mg/kg/injection, schedule: Q01DX009 (ip), vehicle: saline sonified 98 % of control | dose: 200.0 mg/kg/injection, schedule: Q04DX003 (ip), vehicle: Klucel (hydroxypropylcellulose) (HPC) 104 % of control | dose: 400.0 mg/kg/injection, schedule: Q01DX009 (ip), vehicle: saline sonified 95 % of control | dose: 400.0 mg/kg/injection, schedule: Q04DX003 (ip), vehicle: Klucel (hydroxypropylcellulose) (HPC) 104 % of control

CN(C)[C](=O)[Pb]([c]1ccccc1)([c]1ccccc1)[c]1ccccc1
inactive: dose: 100.0 mg/kg/injection, schedule: Q04DX002 (ip), vehicle: saline with Tween-80 98 % of control | dose: 200.0 mg/kg/injection, schedule: Q04DX002 (ip), vehicle: saline with Tween-80 98 % of control

C=CCSc1nc(N)nc2c1nc(SCC=C)n2C1OC(CO)C(O)C1O (stereo unspecified)
inactive: dose: 50.0 mg/kg/injection, schedule: Q01DX005 (ip), vehicle: saline 93 % of control | dose: 100.0 mg/kg/injection, schedule: Q01DX005 (ip), vehicle: saline 102 % of control | dose: 200.0 mg/kg/injection, schedule: Q01DX005 (ip), vehicle: saline 100 % of control
